From patent US12637424B2, “Pharmaceutical salt of an arylpyrrole derivative” (SENTINEL ONCOLOGY LIMITED, priority 2020, dated 2026) come the findings set out here.

A short description of the series: Oral bioavailability and brain exposure in mouse PK. Conditions: mice. It is filed as in vivo, Male CD-1 mice. On the procedure: Atropisomer A-2 was evaluated in an in vivo mouse model to determine brain and plasma concentrations following p.o. and i.v. dosing. Male CD-1 mice were dosed with atropisomer A-2, either by i.v. administration (2 mg/kg) or by p.o. administration (10 mg/kg). Eight samples were taken for analysis in the i.v. leg at 2, 10, 30 min, 1, 2, 4, 8, and 24 (for i.v) and 9 samples in the p.o. leg at 15, 30 min, 1, 2, 4, 8, 24, 48 and 72 hrs. Atropisomer A-2 was formulated in 10% DMSO/[…] hydroxypropyl-beta-cyclodextrin (20% w/v in water) for i.v. and p.o. dosing. N=3 mice per time point. Post dosing, terminal blood samples were taken from individual animals and delivered into labelled polypropylene tubes containing anticoagulant (EDTA). The samples were held on wet ice for a maximum of 30 min while sampling of all the animals in the cohort was completed. The blood samples were centrifuged for plasma (4° C., 21100 g for 5 min) and the resulting plasma transferred into corresponding labelled tubes. Terminal brains from each PO dosed animal were excised, rinsed with saline and placed into pre-weighed labelled polypropylene tubes and the samples re-weighed prior to storage. Quantitative bioanalysis was carried out using liquid chromatography—mass spectroscopy was performed. The results are shown in Tables 14 and 15 below and in FIGS. 12 and 13.

For `CN(C)CCNC(=O)c1ccc(-c2ccc(-c3ccc(Cl)cc3)n2-c2ccccc2C(F)(F)F)cc1` (single isomer, unassigned) [Atropisomer A-2], the CI (2 mg/Kg IV, plasma) was 1.23 L/h/kg. Besides, the F (10 mg/Kg PO vs 2 mg/Kg IV) turned out to be 76%.
